Source: the supplement of paper PMC10307832

Columns and labels:
Experiment in all cases: relative viability (nuclei count vs DMSO), 5 days (fraction); higher = more cells survive
Zebularine + Pemetrexed = compound: O=c1ncccn1[C@@H]1O[C@H](CO)[C@@H](O)[C@H]1O [Zebularine] + Nc1nc2[nH]cc(CCc3ccc(C(=O)N[C@@H](CCC(=O)O)C(=O)O)cc3)c2c(=O)[nH]1 [Pemetrexed] (partner 0.2 µM)
Method in brief: (§1)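 After 5 days of treatment, lung cancer cells in 1536-well plates were fixed and stained in a single step (final 0.05% Triton X-100, 1% formaldehyde, 1 ug/ml Hoechst) and their nuclei counted on 4× images. Treatment had been applied by pin tool the day after seeding as one drug alone or as a fixed anchor-drug dose with five library-drug doses (not always all listed) in √10 steps. Relative viability is the nuclei count of treated wells divided by that of vehicle wells, and values are medians of duplicate plates.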

Zebularine + Olaparib = compound: O=c1ncccn1[C@@H]1O[C@H](CO)[C@@H](O)[C@H]1O [Zebularine] + O=C(c1cc(Cc2n[nH]c(=O)c3ccccc23)ccc1F)N1CCN(C(=O)C2CC2)CC1 [Olaparib] (partner 8 µM)
Method in brief: as §1

BI-D1870 + Linsitinib = compound: CC(C)CCN1c2nc(Nc3cc(F)c(O)c(F)c3)ncc2N(C)C(=O)C1C [BI-D1870] + C[C@]1(O)C[C@@H](c2nc(-c3ccc4ccc(-c5ccccc5)nc4c3)c3c(N)nccn32)C1 [Linsitinib] (partner 1 µM)
Method in brief: as §1

Zebularine + Crizotinib = compound: O=c1ncccn1[C@@H]1O[C@H](CO)[C@@H](O)[C@H]1O [Zebularine] + C[C@@H](Oc1cc(-c2cnn(C3CCNCC3)c2)cnc1N)c1c(Cl)ccc(F)c1Cl [Crizotinib] (partner 1 µM)
Method in brief: as §1

| Cell Line | relative viability (Zebularine + Pemetrexed; first compound 1 µM) | relative viability (Zebularine + Pemetrexed; first compound 3.162 µM) | relative viability (Zebularine + Pemetrexed; first compound 10 µM) | relative viability (Zebularine + Pemetrexed; first compound 31.62 µM) | relative viability (Zebularine + Pemetrexed; first compound 100 µM) | relative viability (Zebularine + Olaparib; first compound 1 µM) | relative viability (Zebularine + Olaparib; first compound 3.162 µM) | relative viability (Zebularine + Olaparib; first compound 10 µM) | relative viability (Zebularine + Olaparib; first compound 31.62 µM) | relative viability (Zebularine + Olaparib; first compound 100 µM) | relative viability (BI-D1870 + Linsitinib; first compound 0.04 µM) | relative viability (BI-D1870 + Linsitinib; first compound 0.1265 µM) | relative viability (BI-D1870 + Linsitinib; first compound 0.4 µM) | relative viability (BI-D1870 + Linsitinib; first compound 1.265 µM) | relative viability (BI-D1870 + Linsitinib; first compound 4 µM) | relative viability (Zebularine + Crizotinib; first compound 1 µM) | relative viability (Zebularine + Crizotinib; first compound 3.162 µM) | relative viability (Zebularine + Crizotinib; first compound 10 µM) | relative viability (Zebularine + Crizotinib; first compound 31.62 µM) | relative viability (Zebularine + Crizotinib; first compound 100 µM) |
| --- | --- | --- | --- | --- | --- | --- | --- | --- | --- | --- | --- | --- | --- | --- | --- | --- | --- | --- | --- | --- |
| NCI-H1975 | 0.323 | 0.283 | 0.235 | 0.206 | 0.2 | 0.84 | 0.574 | 0.277 | 0.257 | 0.251 | 1.01 | 0.849 | 0.874 | 0.94 | 0.636 | 1.02 | 1.07 | 0.513 | 0.317 | 0.265 |
| CAL-12T | 1.43 | 1.1 | 0.914 | 1.18 | 0.47 | 0.837 | 0.721 | 0.548 | 0.444 | 0.273 | 0.935 | 0.559 | 0.749 | 0.79 | 0.704 | 0.657 | 0.596 |  | 0.719 | 0.574 |
| HCC-44 | 0.723 | 0.625 | 0.646 | 0.679 | 0.445 | 0.974 | 0.971 | 0.762 | 0.825 | 0.39 | 0.718 | 0.667 | 0.679 | 0.712 | 0.634 | 0.808 | 0.798 | 0.698 | 0.656 | 0.166 |
| EKVX | 0.396 | 0.431 |  | 0.433 | 0.397 | 0.952 | 0.813 |  | 0.757 | 0.664 | 1.14 | 0.933 | 1 | 1.05 | 0.893 | 1.11 | 0.87 |  | 0.896 | 1.11 |
| NCI-H1651 | 0.631 | 0.556 | 0.542 | 0.563 | 0.347 | 0.183 | 0.188 | 0.187 | 0.165 | 0.166 | 1.09 | 0.907 | 0.962 | 0.922 | 0.752 | 0.919 | 0.893 | 0.604 | 0.745 | 0.514 |
| NCI-H1944 | 0.696 | 0.604 | 0.614 | 0.573 | 0.357 | 0.449 | 0.474 | 0.366 | 0.34 | 0.246 | 1.34 | 1.18 | 1.07 | 1.38 | 1.08 | 1.21 | 1.06 | 0.681 | 0.87 | 0.666 |
| NCI-H1703 |  |  |  |  |  | 0.468 | 0.552 | 0.339 | 0.395 | 0.321 |  | 0.405 | 0.635 | 0.772 | 0.728 | 0.623 | 0.852 |  | 0.67 | 0.913 |
| Calu-6 |  |  |  |  |  | 0.739 | 0.467 | 0.409 | 0.331 | 0.253 | 1.04 | 0.896 | 0.889 | 0.884 | 0.744 | 0.902 | 0.77 | 0.556 | 0.447 | 0.211 |
| EBC-1 |  |  |  |  |  | 0.833 | 0.731 | 0.584 | 0.547 | 0.359 | 1.17 | 0.616 | 0.75 | 0.582 | 0.682 | 0.191 | 0.18 |  | 0.187 | 0.189 |
